Data as given in ChEMBL document CHEMBL4308841, “Synthesis, in vitro antiproliferative activity, and kinase inhibitory effects of pyrazole-containing diarylureas and diarylamides” (Eur J Med Chem, 2018).

How the values were obtained:
PC-3 [1] = experiment: Growth inhibition of human PC3 cells incubated for 48 hrs by sulforhodamine B assay; type: functional, cell-based; details: PC-3, 48 h
LOX IMVI = experiment: Growth inhibition of human LOXIMVI cells assessed as cell growth at 0.1 uM incubated for 48 hrs by sulforhodamine B assay relative to control; type: functional; details: read-out: Activity
NCI-H460 = experiment: Growth inhibition of human NCI-H460 cells assessed as cell growth at 0.01 uM incubated for 48 hrs by sulforhodamine B assay relative to control; type: functional; details: NCI-H460, 48 h, read-out: Activity
MDA-MB-468 [2] = experiment: Growth inhibition of human MDA-MB-468 cells assessed as cell growth at 0.01 uM incubated for 48 hrs by sulforhodamine B assay relative to control; type: functional; details: MDA-MB-468, 48 h, read-out: Activity
NCI-H23 [3] = experiment: Growth inhibition of human NCI-H23 cells assessed as cell growth at 1 uM incubated for 48 hrs by sulforhodamine B assay relative to control; type: functional; details: NCI-H23, 48 h, read-out: Activity
T47D = experiment: Growth inhibition of human T47D cells assessed as cell growth at 100 uM incubated for 48 hrs by sulforhodamine B assay relative to control; type: functional; details: read-out: Activity
SR = experiment: Growth inhibition of human SR cells assessed as cell growth at 0.01 uM incubated for 48 hrs by sulforhodamine B assay relative to control; type: functional; details: read-out: Activity
HCT-15 = experiment: Growth inhibition of human HCT15 cells incubated for 48 hrs by sulforhodamine B assay; type: functional, cell-based; details: HCT-15, 48 h
SK-MEL-5 [4] = experiment: Growth inhibition of human SK-MEL-5 cells assessed as cell growth at 0.1 uM incubated for 48 hrs by sulforhodamine B assay relative to control; type: functional; details: SK-MEL-5, 48 h, read-out: Activity
NCI-H23 [5] = experiment: Growth inhibition of human NCI-H23 cells incubated for 48 hrs by sulforhodamine B assay; type: functional, cell-based; details: NCI-H23, 48 h
HL-60(TB) [6] = experiment: Growth inhibition of human HL-60(TB) cells assessed as cell growth at 1 uM incubated for 48 hrs by sulforhodamine B assay relative to control; type: functional; details: HL-60, 48 h, read-out: Activity
MOLT-4 = experiment: Growth inhibition of human MOLT4 cells assessed as cell growth at 100 uM incubated for 48 hrs by sulforhodamine B assay relative to control; type: functional; details: MOLT-4, 48 h, read-out: Activity
HCC 2998 [7] = experiment: Growth inhibition of human HCC2998 cells assessed as cell growth at 0.01 uM incubated for 48 hrs by sulforhodamine B assay relative to control; type: functional; details: HCC 2998, 48 h, read-out: Activity
HL-60(TB) [8] = experiment: Growth inhibition of human HL-60(TB) cells assessed as cell growth at 0.01 uM incubated for 48 hrs by sulforhodamine B assay relative to control; type: functional; details: HL-60, 48 h, read-out: Activity
HT-29 = experiment: Growth inhibition of human HT-29 cells assessed as cell growth at 1 uM incubated for 48 hrs by sulforhodamine B assay relative to control; type: functional; details: HT-29, 48 h, read-out: Activity
PC-3 [9] = experiment: Growth inhibition of human PC3 cells assessed as cell growth at 100 uM incubated for 48 hrs by sulforhodamine B assay relative to control; type: functional; details: PC-3, 48 h, read-out: Activity
SW-620 = experiment: Growth inhibition of human SW620 cells assessed as cell growth at 0.1 uM incubated for 48 hrs by sulforhodamine B assay relative to control; type: functional; details: SW-620, 48 h, read-out: Activity
MDA-MB-468 [10] = experiment: Growth inhibition of human MDA-MB-468 cells assessed as cell growth at 100 uM incubated for 48 hrs by sulforhodamine B assay relative to control; type: functional; details: MDA-MB-468, 48 h, read-out: Activity
HOP-62 = experiment: Growth inhibition of human HOP62 cells assessed as cell growth at 1 uM incubated for 48 hrs by sulforhodamine B assay relative to control; type: functional; details: HOP-62, 48 h, read-out: Activity
OVCAR-8 = experiment: Growth inhibition of human OVCAR8 cells assessed as cell growth at 1 uM incubated for 48 hrs by sulforhodamine B assay relative to control; type: functional; details: OVCAR-8, 48 h, read-out: Activity
SK-MEL-5 [11] = experiment: Growth inhibition of human SK-MEL-5 cells assessed as cell growth at 0.01 uM incubated for 48 hrs by sulforhodamine B assay relative to control; type: functional; details: SK-MEL-5, 48 h, read-out: Activity
SF-268 = experiment: Growth inhibition of human SF268 cells assessed as cell growth at 0.1 uM incubated for 48 hrs by sulforhodamine B assay relative to control; type: functional; details: SF-268, 48 h, read-out: Activity
HCC 2998 [12] = experiment: Growth inhibition of human HCC2998 cells incubated for 48 hrs by sulforhodamine B assay; type: functional, cell-based; details: HCC 2998, 48 h
OVCAR-3 = experiment: Growth inhibition of human OVCAR3 cells assessed as cell growth at 0.01 uM incubated for 48 hrs by sulforhodamine B assay relative to control; type: functional; details: OVCAR-3, 48 h, read-out: Activity
M14 = experiment: Growth inhibition of human M14 cells incubated for 48 hrs by sulforhodamine B assay; type: functional, cell-based; details: M14, 48 h
SK-MEL-28 = experiment: Growth inhibition of human SK-MEL-28 cells incubated for 48 hrs by sulforhodamine B assay; type: functional, cell-based; details: SK-MEL-28, 48 h
SNB-19 = experiment: Growth inhibition of human SNB19 cells assessed as cell growth at 100 uM incubated for 48 hrs by sulforhodamine B assay relative to control; type: functional; details: SNB-19, 48 h, read-out: Activity
SF-295 = experiment: Growth inhibition of human SF295 cells assessed as cell growth at 0.01 uM incubated for 48 hrs by sulforhodamine B assay relative to control; type: functional; details: SF-295, 48 h, read-out: Activity
[13] = read-out: LC50 (the source's name)
[14] = read-out: pLC50 (the source's name) (converted)

COc1cc(Cl)cc(-c2nn(-c3cccc(NC(=O)Nc4ccc(Cl)c(Cl)c4)c3)cc2-c2ccncc2)c1
IC50 (PC-3 [1]): 1.13 µM | GI50 (PC-3 [1]; read-out: GI50): 1.13 µM | CC50 (PC-3 [1]; [13]): > 100 µM | TGI (PC-3 [1]; read-out: TGI): 52.5 µM | GI50 (PC-3 [1]; read-out: pGI50 (converted)): 1.12 µM | CC50 (PC-3 [1]; [14]): > 100 µM | TGI (PC-3 [1]; read-out: pTGI (converted)): 5.25 µM | growth at 0.1 µM (LOX IMVI): 94% | growth at 0.01 µM (NCI-H460): 100% | growth at 0.01 µM (MDA-MB-468 [2]): 95% | growth at 1 µM (NCI-H23 [3]): 89% | growth at 100 µM (T47D): -9% | growth at 0.01 µM (SR): 94% | GI50 (HCT-15; read-out: GI50): 2.51 µM | CC50 (HCT-15; [13]): > 100 µM | TGI (HCT-15; read-out: TGI): 31.5 µM | GI50 (HCT-15; read-out: pGI50 (converted)): 2.51 µM | CC50 (HCT-15; [14]): > 100 µM | TGI (HCT-15; read-out: pTGI (converted)): 31.6 µM | growth at 0.1 µM (SK-MEL-5 [4]): 96% | LC50 (NCI-H23 [5]; read-out: LC50): > 100 µM | GI50 (NCI-H23 [5]; read-out: pGI50 (converted)): 2.63 µM | LC50 (NCI-H23 [5]; read-out: pLC50 (converted)): > 100 µM | TGI (NCI-H23 [5]; read-out: pTGI (converted)): 9.12 µM | growth at 1 µM (HL-60(TB) [6]): 91% | growth at 100 µM (MOLT-4): -7% | growth at 0.01 µM (HCC 2998 [7]): 93% | growth at 0.01 µM (HL-60(TB) [8]): 99% | growth at 1 µM (HT-29): 62% | growth at 100 µM (PC-3 [9]): -24% | growth at 0.1 µM (SW-620): 97% | growth at 100 µM (MDA-MB-468 [10]): -18% | growth at 1 µM (HOP-62): 91% | growth at 1 µM (OVCAR-8): 78% | growth at 0.01 µM (SK-MEL-5 [11]): 95% | growth at 0.1 µM (SF-268): 95% | GI50 (HCC 2998 [12]; read-out: GI50): 3.16 µM | CC50 (HCC 2998 [12]; [13]): > 100 µM | TGI (HCC 2998 [12]; read-out: TGI): 35.8 µM | GI50 (HCC 2998 [12]; read-out: pGI50 (converted)): 3.16 µM | CC50 (HCC 2998 [12]; [14]): > 100 µM | TGI (HCC 2998 [12]; read-out: pTGI (converted)): 37.2 µM | growth at 0.01 µM (OVCAR-3): 100% | GI50 (M14; read-out: GI50): 2.52 µM | CC50 (M14; [13]): > 100 µM | TGI (M14; read-out: TGI): 10 µM | GI50 (M14; read-out: pGI50 (converted)): 3.16 µM | CC50 (M14; [14]): > 100 µM | TGI (M14; read-out: pTGI (converted)): 11 µM | GI50 (SK-MEL-28; read-out: GI50): 2.96 µM | CC50 (SK-MEL-28; [13]): > 100 µM | TGI (SK-MEL-28; read-out: TGI): 35.6 µM | GI50 (SK-MEL-28; read-out: pGI50 (converted)): 2.95 µM | CC50 (SK-MEL-28; [14]): > 100 µM | TGI (SK-MEL-28; read-out: pTGI (converted)): 37.2 µM | growth at 100 µM (SNB-19): 10% | growth at 0.01 µM (SF-295): 87%

O=C(Nc1cccc(-n2cc(-c3ccncc3)c(-c3cc(O)cc(Cl)c3)n2)c1)c1ccc(N2CCOCC2)c(C(F)(F)F)c1
IC50 (PC-3 [1]): 1.09 µM | GI50 (PC-3 [1]; read-out: GI50): 1.09 µM | CC50 (PC-3 [1]; [13]): > 100 µM | TGI (PC-3 [1]; read-out: TGI): 45.6 µM | GI50 (PC-3 [1]; read-out: pGI50 (converted)): 1.1 µM | CC50 (PC-3 [1]; [14]): > 100 µM | TGI (PC-3 [1]; read-out: pTGI (converted)): 45.7 µM | growth at 0.1 µM (LOX IMVI): 102% | growth at 0.01 µM (NCI-H460): 104% | growth at 0.01 µM (MDA-MB-468 [2]): 92% | growth at 1 µM (NCI-H23 [3]): 92% | growth at 100 µM (T47D): 7% | growth at 0.01 µM (SR): 92% | GI50 (HCT-15; read-out: GI50): 0.559 µM | CC50 (HCT-15; [13]): 84.9 µM | TGI (HCT-15; read-out: TGI): 11.3 µM | GI50 (HCT-15; read-out: pGI50 (converted)): 0.562 µM | CC50 (HCT-15; [14]): 85.1 µM | TGI (HCT-15; read-out: pTGI (converted)): 11.2 µM | growth at 0.1 µM (SK-MEL-5 [4]): 91% | GI50 (NCI-H23 [5]; read-out: GI50): 3.56 µM | LC50 (NCI-H23 [5]; read-out: LC50): > 100 µM | TGI (NCI-H23 [5]; read-out: TGI): 38.8 µM | GI50 (NCI-H23 [5]; read-out: pGI50 (converted)): 3.63 µM | LC50 (NCI-H23 [5]; read-out: pLC50 (converted)): > 100 µM | TGI (NCI-H23 [5]; read-out: pTGI (converted)): 38.9 µM | growth at 1 µM (HL-60(TB) [6]): 44% | growth at 100 µM (MOLT-4): -20% | growth at 0.01 µM (HCC 2998 [7]): 102% | growth at 0.01 µM (HL-60(TB) [8]): 92% | growth at 1 µM (HT-29): 94% | growth at 100 µM (PC-3 [9]): -8% | growth at 0.1 µM (SW-620): 105% | growth at 100 µM (MDA-MB-468 [10]): -15% | growth at 1 µM (HOP-62): 85% | growth at 1 µM (OVCAR-8): 57% | growth at 0.01 µM (SK-MEL-5 [11]): 98% | growth at 0.1 µM (SF-268): 101% | GI50 (HCC 2998 [12]; read-out: GI50): 1.52 µM | CC50 (HCC 2998 [12]; [13]): > 100 µM | TGI (HCC 2998 [12]; read-out: TGI): 79.5 µM | GI50 (HCC 2998 [12]; read-out: pGI50 (converted)): 1.82 µM | CC50 (HCC 2998 [12]; [14]): > 100 µM | TGI (HCC 2998 [12]; read-out: pTGI (converted)): 7.94 µM | growth at 0.01 µM (OVCAR-3): 111% | GI50 (M14; read-out: GI50): 0.774 µM | CC50 (M14; [13]): 54.5 µM | TGI (M14; read-out: TGI): 21.4 µM | GI50 (M14; read-out: pGI50 (converted)): 0.776 µM | CC50 (M14; [14]): 8.51 µM | TGI (M14; read-out: pTGI (converted)): 2.75 µM | GI50 (SK-MEL-28; read-out: GI50): 0.759 µM | CC50 (SK-MEL-28; [13]): > 100 µM | TGI (SK-MEL-28; read-out: TGI): 32.7 µM | GI50 (SK-MEL-28; read-out: pGI50 (converted)): 0.759 µM | CC50 (SK-MEL-28; [14]): > 100 µM | TGI (SK-MEL-28; read-out: pTGI (converted)): 3.24 µM | growth at 100 µM (SNB-19): -12% | growth at 0.01 µM (SF-295): 97%
